Measured values from ChEMBL document CHEMBL1201862, “PubChem BioAssay data set” (2004).
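Exposure lasted 48 hours, with cells grown in 96-well plates and compounds tested at five concentrations. GI50: concentration for 50% inhibition of growth.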 The source made the active and inactive calls. Cut-off read from the data, not from the text of the source: active = GI50 up to about 1.1 µM and inactive = higher.

Columns and labels:
Assay in all cases: growth of human tumour cells (NCI), 48 h
[1] = test system: SK-OV-3
[2] = test system: U-251
[3] = test system: NCI-H226
[4] = test system: T47D
[5] = test system: HOP-92
[6] = test system: DLD-1
[7] = test system: SF-295
[8] = test system: KM-20L2
[9] = test system: HCT-15
[10] = test system: PC-3
[11] = test system: UACC-257
[12] = test system: A549
[13] = test system: HCC 2998
[14] = test system: SNB-78
[15] = test system: COLO 205
[16] = test system: SR
[17] = test system: UO-31
[18] = test system: UACC-62
[19] = test system: RPMI-8226
[20] = test system: SN12C
[21] = test system: SK-MEL-5
[22] = test system: M14
[23] = test system: LXFL 529
[24] = test system: CAKI-1
[25] = test system: TK-10
[26] = test system: HT-29
[27] = test system: DMS-273
[28] = test system: SK-MEL-28
[29] = test system: HOP-62
[30] = test system: OVCAR-4
[31] = test system: NCI-H460
[32] = test system: K562
[33] = test system: MDA-MB-231
[34] = test system: DU-145
[35] = test system: MOLT-4
[36] = test system: SK-MEL-2
[37] = test system: DMS-114
[38] = test system: EKVX
[39] = test system: OVCAR-8
[40] = test system: OVCAR-5
[41] = test system: CCRF-CEM
[42] = test system: SNB-19
[43] = test system: SF-268
[44] = test system: SNB-75
[45] = test system: IGROV-1
[46] = test system: OVCAR-3
[47] = test system: SW-620
[48] = test system: Hs-578T
[49] = test system: 786-0
[50] = test system: HCT-116
[51] = test system: NCI-H522
[52] = test system: M19-MEL
[53] = test system: HL-60
[54] = test system: KM12
[55] = test system: Malme-3M
[56] = test system: MDA-N
[57] = test system: XF498
[58] = test system: HOP-18
[59] = test system: MCF7
[60] = test system: ACHN
[61] = test system: SF-539
[62] = test system: MDA-MB-435
[63] = test system: RXF 393
[64] = test system: LOX IMVI
[65] = test system: NCI-H23

CO/C1=C\C(C)=C\C(C)C(O)C(C)C/C(C)=C/C=C/C(OC)C(C(C)C(O)C(C)C2(O)CC(O)C(C)C(C(C)C)O2)OC1=O (stereo not given) was tested. Which GI50 [1] did it give?
The GI50 was 684 nM (active).

And the GI50 [2]?
The GI50 was 7.06 nM (active).

And the GI50 [3]?
The GI50 was 13.4 nM (active).

And the GI50 [4]?
Its GI50 is 2.97 nM (active).

And the GI50 [5]?
The GI50 was 0.41 nM (active).

And the GI50 [6]?
Its GI50 is 0.0705 nM (active).

What about the GI50 [7] of the same compound?
Its GI50 is 1.63 nM (active).

What about the GI50 [8] of the same compound?
The GI50 was 0.0112 nM (active).

What about the GI50 [9] of the same compound?
Its GI50 is 0.143 nM.

What about the GI50 [10] of the same compound?
Its GI50 is 2.52 nM (active).

And the GI50 [11]?
The GI50 was 6.34 nM (active).

And the GI50 [12]?
Its GI50 is 1.01 nM (active).

What about the GI50 [13] of the same compound?
The GI50 was 0.757 nM (active).

What about the GI50 [14] of the same compound?
The GI50 was 10200 nM (inactive).

And the GI50 [15]?
The GI50 was 3.43 nM (active).

And the GI50 [16]?
Its GI50 is 0.0908 nM (active).

What about the GI50 [17] of the same compound?
The GI50 was 2.78 nM (active).

What about the GI50 [18] of the same compound?
The GI50 was 2.8 nM (active).

What about the GI50 [19] of the same compound?
Its GI50 is 1.51 nM (active).

And the GI50 [20]?
Its GI50 is 10 nM (active).

And the GI50 [21]?
The GI50 was 0.396 nM (active).

What about the GI50 [22] of the same compound?
Its GI50 is 0.369 nM (active).

What about the GI50 [23] of the same compound?
The GI50 was 0.323 nM (active).

What about the GI50 [24] of the same compound?
Its GI50 is 2.05 nM (active).

And the GI50 [25]?
Its GI50 is 14500 nM (inactive).

What about the GI50 [26] of the same compound?
The GI50 was 0.0664 nM (active).

What about the GI50 [27] of the same compound?
The GI50 was 0.261 nM (active).

What about the GI50 [28] of the same compound?
Its GI50 is 66.1 nM (active).

And the GI50 [29]?
The GI50 was 0.051 nM (active).

And the GI50 [30]?
The GI50 was 10 nM (active).

And the GI50 [31]?
The GI50 was 0.401 nM (active).

And the GI50 [32]?
The GI50 was 2.31 nM (active).

What about the GI50 [33] of the same compound?
The GI50 was 0.382 nM (active).

What about the GI50 [34] of the same compound?
Its GI50 is 0.873 nM (active).

What about the GI50 [35] of the same compound?
The GI50 was 2.2 nM (active).

And the GI50 [36]?
The GI50 was 4.53 nM (active).

What about the GI50 [37] of the same compound?
The GI50 was 4.58 nM (active).

What about the GI50 [38] of the same compound?
The GI50 was 56.6 nM (active).

And the GI50 [39]?
The GI50 was 1.64 nM (active).

And the GI50 [40]?
Its GI50 is 0.491 nM (active).

And the GI50 [41]?
Its GI50 is 1.19 nM (active).

What about the GI50 [42] of the same compound?
The GI50 was 10900 nM (inactive).

And the GI50 [43]?
The GI50 was 5.19 nM (active).

And the GI50 [44]?
Its GI50 is 8.57 nM (active).

And the GI50 [45]?
Its GI50 is 2.23 nM (active).

And the GI50 [46]?
Its GI50 is 4.34 nM (active).

And the GI50 [47]?
The GI50 was 0.471 nM (active).

What about the GI50 [48] of the same compound?
The GI50 was 11 nM (active).

And the GI50 [49]?
Its GI50 is 3.31 nM (active).

And the GI50 [50]?
The GI50 was 0.382 nM (active).

What about the GI50 [51] of the same compound?
The GI50 was 1.12 nM (active).

And the GI50 [52]?
Its GI50 is 3.74 nM (active).

And the GI50 [53]?
Its GI50 is 0.134 nM (active).

And the GI50 [54]?
Its GI50 is 0.351 nM (active).

What about the GI50 [55] of the same compound?
The GI50 was 11.9 nM (active).

And the GI50 [56]?
The GI50 was 1.82 nM (active).

And the GI50 [57]?
Its GI50 is 24.2 nM (active).

And the GI50 [58]?
The GI50 was 10100 nM (inactive).

And the GI50 [59]?
The GI50 was 3.71 nM (active).

And the GI50 [60]?
Its GI50 is 14.8 nM (active).

And the GI50 [61]?
Its GI50 is 1.93 nM (active).

And the GI50 [62]?
Its GI50 is 1.98 nM (active).

And the GI50 [63]?
Its GI50 is 5.26 nM (active).

What about the GI50 [64] of the same compound?
Its GI50 is 0.01 nM (active).

And the GI50 [65]?
Its GI50 is 2.67 nM (active).
